Test results as given in paper PMC12561453, “Synthesis and Structure–Activity Relationship Study of 2-(amino)quinazolin-4(3H)-one Derivatives as Potential Inhibitors of Methicillin-Resistant Staphylococcus aureus (MRSA)” (Antibiotics, 2025).
Values after ≈ are worked out from the molar mass of the structure shown. Where two headings read alike, the source gives them in different places.

Key:
S. aureus ATCC25923 = assay: Broth microdilution dose-response, S. aureus ATCC25923; assay type: cell-based, Staphylococcus aureus
Excerpt: (§1) The antistaphylococcal activities (MIC50) of the synthesized compounds were examined via a previously described broth microdilution method against two S. aureus strains: ATCC25923, a methicillin-sensitive reference strain, and JE2, a methicillin-resistant strain of the USA300 lineage (Figure 2, Table 1).
(§2) Staphylococcus aureus USA300, a methicillin-resistant strain, was obtained from the Nebraska Transposon Mutant Library. Staphylococcus aureus ATCC25923, a pan-drug-susceptible strain, was purchased from the American Type Culture Collection (ATCC) (Manassas, VA, USA). S. aureus strains were grown in Cation-Adjusted Mueller–Hinton broth (CAMHB) (Difco) at 37 °C. Bacterial strain stocks were stored in vials with 25% glycerol at −80 °C. For each experiment, overnight cultures were prepared by inoculating a frozen bacterial strain stock in 10 mL of CAMHB medium and incubating at 37 °C in a shaking incubator (180 rpm). For the preliminary screen and dose–response experiments, 100 µL of overnight culture was inoculated into 10 mL of fresh CAMHB and incubated for 3 h at 37 °C and 180 rpm.
(§3) Antibiotic susceptibility assay was tested according to modified Clinical and Laboratory Standards Institute (CLSI) laboratory guidelines for broth microdilution assays. S. aureus was cultured in CAMHB, and bacterial cells were prepared with an OD600 of 0.005. DRC plates were prepared by adding 40 µL of bacterial suspension to each well, where 10 µL of each compound had been dispensed for […] of two-fold serial dilutions starting at […]. After incubation of the plates at 37 °C for 18–24 h with 5% CO2, the growth of S. aureus was detected by measuring the OD600nm using an Ensight (Revvity) spectrometer (Revvity, Waltham, MA, USA).
(§4) Figure 2 In vitro antibacterial activities of 2-(amino)quinazolin-4(3H)-one derivatives. S. aureus ATCC25923 (blue) and USA300 JE (orange) strains were incubated with serial dilutions of 2-(amino)quinazolin-4(3H)-one derivatives (0.19–100 µM) for 18–24 h. The dose–responses were observed by measuring OD600nm. The plots were drawn from each group of strains with nonlinear curve fits.

S. aureus USA300 JE2 = assay: Broth microdilution dose-response, S. aureus USA300 JE2 (MRSA); assay type: cell-based, Staphylococcus aureus; conditions: for fold better antibacterial activity against JE2 compared to compound 1: JE2, versus compound 1
Excerpt: as §1, §2, §3, §4

HepG2 cells = assay: In vitro cytotoxicity, HepG2 viability (resazurin); assay type: cell-based, human; conditions: Homo sapiens, HepG2, 24 h, read-out: HepG2 IC50
Experimental: The in vitro cytotoxicity of the compounds was evaluated by measuring the viability of HepG2 cells, a human liver cell line, following treatment in a dose–response manner, as previously described. […] The efficacy window was calculated as the ratio of IC50 in HepG2 cells to MIC50 against JE2.
To test cytotoxicity with compounds, the human liver cell line HepG2 (ATCC #HB-8065) was used for the assay. HepG2 was cultured in DMEM with 10% fetal bovine serum (FBS) in a 96-well microplate at 37 °C and 5% CO2. HepG2 cells were seeded at a final density of 5 × 10^4 cells/well, and DMEM-containing diluted compounds were added and incubated on the plates at 37 °C in 5% CO2 for 24 h. After that, resazurin (final concentration, 0.1 mg/mL) was added to each well and incubated on the plates at 37 °C in 5% CO2 for 2 h. To detect the fluorescence at 530 nm excitation and 590 nm emission, an Ensight multimode plate reader was used (Revvity, Waltham, MA, USA).

[1] = test system: S. aureus USA300 JE2 expressing GFP in H460 cells; assay: microbe, parasite or virus in culture; assay type: cell-based, Staphylococcus aureus; conditions: for MIC50: Staphylococcus aureus, USA300, 24 h, read-out: H460 Assay MIC50 (MIC50 ex vivo)
Excerpt: Staphylococcus aureus, including MRSA, can invade host cells and replicate intracellularly, which complicates treatment with current therapies. To evaluate the intracellular antibacterial activities of the selected compounds, the fifteen compounds tested for cytotoxicity were further assessed using a cell infection model based on H460 human lung epithelial cells, which mimic MRSA-mediated pneumonia. H460 cells were infected with the USA300 JE2 expressing green fluorescent protein (GFP) and subsequently treated with the compounds in a dose–response manner, along with three reference antibiotics: vancomycin, linezolid, and erythromycin. After 24 h of incubation, bacterial loads were quantified by measuring GFP fluorescence in each well. MIC50 values determined in the H460 infection model (MIC50 ex vivo) were generally higher than those obtained from the in vitro tests, likely due to either limited compound penetration into host cells or reduced antibacterial effect of the compounds against intracellular bacteria (Figure 3, Table 2). […] These findings underscore the potential of compound 6y as a promising lead for further development as a novel antistaphylococcal agent.
To see the ex vivo antimicrobial activity of the compound, the human lung carcinoma cell line H460 (ATCC #HTB-177) was used. The H460 cells were cultured in RPMI 1640 medium with 10% fetal bovine serum (FBS) and in a 96-well microplate at 37 °C and 5% CO2. Cell lines were cultured for 2 days, until they reached full confluence in the well. S. aureus (USA300-containing and pCM29-encoding GFP) was cultured in CAMHB with 10 µg/mL of chloramphenicol, and bacterial cells were harvested. After washing the bacterial cells with phosphate-buffered saline (PBS) and suspending them in RPMI, infected H460 cells with S. aureus (1 × 10^7 CFU) and incubated them for 2.5 h. Samples were washed three times with PBS. Then, cells were treated with gentamicin (50 µg/mL of gentamicin in RPMI) and incubated for 1 h. Samples were washed with PBS, RPMI-containing diluted compounds were added, and then they were incubated at 37 °C in 5% CO2 for 24 h. To detect the Green fluorescent protein (GFP) signal, an Ensight multimode plate reader and Opera Phenix Plus (Revvity, Waltham, MA, USA) were used.
Ex vivo infection model images were generated using the Opera Phenix Plus high-content imaging system. Images were obtained by a confocal microscope with a 20× water objective lens. To detect the bacteria fluorescence signal (GFP), the Alexa 488 channel (488 nm laser/500–550 filter, Thermo Fisher Scientific, Waltham, MA, USA) was used, and the brightfield channel was used for H460 cell images.
Figure 3 Antibacterial activities of 2-(amino)quinazolin-4(3H)-one derivatives in the H460 infection model. H460 cells were infected with S. aureus USA300 JE strain expressing GFP, followed by treatment with serial dilutions of 2-(amino)quinazolin-4(3H)-one derivatives. After incubation at 37 °C for 24 h with 5% CO2, fluorescence signals of the bacteria were detected at 488 nm/510 nm using a multilabel plate reader.

[2] = Staphylococcus aureus, ATCC25923, methicillin-sensitive strain, OD600 after 18–24 h, read-out: ATCC25923 MIC50
[3] = methicillin-sensitive strain, OD600 after 18–24 h, read-out: ATCC25923 MIC50
[4] = Staphylococcus aureus, USA300, USA300 JE2, methicillin-resistant, OD600 after 18–24 h, read-out: USA300 MIC50
[5] = USA300 JE2, methicillin-resistant, OD600 after 18–24 h, read-out: USA300 MIC50

Structure (SMILES) | MIC50 (S. aureus ATCC25923; [2]) [µM] | MIC50 (S. aureus ATCC25923; [3]) [µM] | fold better antibacterial activity against JE2 compared to compound 1 (S. aureus USA300 JE2) | IC50 (HepG2 cells; HepG2 cells, 24 h, resazurin) [µM] | MIC50 [1] [µM] | MIC50 (S. aureus USA300 JE2; [4]) [µM] | MIC50 (S. aureus USA300 JE2; [5]) [µM] | MIC50 (S. aureus ATCC25923; Staphylococcus aureus, ATCC25923, read-out: ATCC25923 MIC50) [µM] | MIC50 (S. aureus USA300 JE2; Staphylococcus aureus, USA300, read-out: USA300 MIC50) [µM] | IC50 (HepG2 cells) [µM] | H460 Assay MIC50 (MIC50 ex vivo) ([1]; H460 cells infected with USA300 JE2-GFP, 24 h, GFP fluorescence) [µM]
O=c1[nH]c(Nc2cc(Cl)cc(Cl)c2)nc2cc(F)c(F)cc12 [6g, 2-((3,5-Dichlorophenyl)amino)-6,7-difluoroquinazolin-4(3H)-one] | 3 to 6 (≈ 1.03 to 2.05 µg/mL) | 4.0 (≈ 1.37 µg/mL) | at least 6.5 fold | 12.9 | 25.3 (≈ 8.66 µg/mL) | – | – | – | – | – | –
O=c1[nH]c(Nc2cc(Cl)cc(Cl)c2)nc2cc(Cl)c(Cl)cc12 [6h, 6,7-Dichloro-2-((3,5-dichlorophenyl)amino)quinazolin-4(3H)-one] | 3 to 6 (≈ 1.13 to 2.25 µg/mL) | 3.7 (≈ 1.39 µg/mL) | at least 6.5 fold | 10.2 | 4.1 (≈ 1.54 µg/mL) | 0.3 to 1.9 (≈ 0.113 to 0.713 µg/mL) | 0.3 (≈ 0.113 µg/mL) | – | – | – | –
O=c1[nH]c(Nc2cc(Cl)cc(Cl)c2)nc2c(Cl)cc(Cl)cc12 [6i, 6,8-Dichloro-2-((3,5-dichlorophenyl)amino)quinazolin-4(3H)-one] | 3 to 6 (≈ 1.13 to 2.25 µg/mL) | 5.7 (≈ 2.14 µg/mL) | at least 6.5 fold | 39.5 | 26.5 (≈ 9.94 µg/mL) | – | – | – | – | – | –
O=c1[nH]c(Nc2cc(Cl)cc(Cl)c2)nc2ccccc12 [6j, 2-((3,5-Dichlorophenyl)amino)quinazolin-4(3H)-one] | 3 to 6 (≈ 0.918 to 1.84 µg/mL) | 5.9 (≈ 1.81 µg/mL) | at least 6.5 fold | 29.7 | 35.4 (≈ 10.8 µg/mL) | – | – | – | – | – | –
O=c1[nH]c(Nc2cc(Cl)cc(Cl)c2)nc2cc(C(F)(F)F)ccc12 [6k, 2-((3,5-Dichlorophenyl)amino)-7-(trifluoromethyl)quinazolin-4(3H)-one] | 1.3 (≈ 0.486 µg/mL) | – | – | 10.5 | 6 (≈ 2.24 µg/mL) | 0.3 (≈ 0.112 µg/mL) | – | – | – | – | –
O=c1[nH]c(Nc2cc(F)cc(F)c2)nc2cc(Cl)ccc12 [6q, 7-Chloro-2-((3,5-difluorophenyl)amino)quinazolin-4(3H)-one] | 2.1 to 4.5 (≈ 0.646 to 1.38 µg/mL) | 2.1 (≈ 0.646 µg/mL) | – | 35.5 | 8.7 (≈ 2.68 µg/mL) | 0.9 to 3 (≈ 0.277 to 0.923 µg/mL) | 0.9 (≈ 0.277 µg/mL) | – | – | – | –
O=c1[nH]c(Nc2cccc(Cl)c2)nc2cc(Cl)ccc12 [6u, 7-Chloro-2-((3-chlorophenyl)amino)quinazolin-4(3H)-one] | 2.1 to 4.5 (≈ 0.643 to 1.38 µg/mL) | 3.5 (≈ 1.07 µg/mL) | – | 4.3 | 19.2 (≈ 5.88 µg/mL) | 0.9 to 3 (≈ 0.276 to 0.918 µg/mL) | 1.1 (≈ 0.337 µg/mL) | – | – | – | –
O=c1[nH]c(Nc2ccc(Cl)cc2)nc2cc(Cl)ccc12 [6v, 7-Chloro-2-((4-chlorophenyl)amino)quinazolin-4(3H)-one] | 2.1 to 4.5 (≈ 0.643 to 1.38 µg/mL) | 2.7 (≈ 0.827 µg/mL) | – | 25.5 | 23.9 (≈ 7.32 µg/mL) | 0.9 to 3 (≈ 0.276 to 0.918 µg/mL) | 1.7 (≈ 0.52 µg/mL) | – | – | – | –
O=c1[nH]c(NCc2ccc(Cl)cc2Cl)nc2cc(Cl)ccc12 [6x, 7-Chloro-2-((2,4-dichlorobenzyl)amino)quinazolin-4(3H)-one] | 2.1 to 4.5 (≈ 0.745 to 1.6 µg/mL) | 3.4 (≈ 1.21 µg/mL) | – | 15.3 | 17.8 (≈ 6.31 µg/mL) | 0.9 to 3 (≈ 0.319 to 1.06 µg/mL) | 1.7 (≈ 0.603 µg/mL) | – | – | – | –
CC[C@H]1OC(=O)[C@H](C)[C@@H](O[C@H]2C[C@@](C)(OC)[C@@H](O)[C@H](C)O2)[C@H](C)[C@@H](O[C@@H]2O[C@H](C)C[C@H](N(C)C)[C@H]2O)[C@](C)(O)C[C@@H](C)C(=O)[C@H](C)[C@@H](O)[C@]1(C)O [Erythromycin, reference compound] | 0.7 (≈ 0.514 µg/mL) | – | – | > 100 | 0.1 (≈ 0.0734 µg/mL) | 0.49 (≈ 0.36 µg/mL) | – | – | – | – | –
CN[C@H](CC(C)C)C(=O)N[C@H]1C(=O)N[C@@H](CC(N)=O)C(=O)N[C@H]2C(=O)N[C@H]3C(=O)N[C@H](C(=O)N[C@H](C(=O)O)c4cc(O)cc(O)c4-c4cc3ccc4O)[C@H](O)c3ccc(c(Cl)c3)Oc3cc2cc(c3O[C@@H]2O[C@H](CO)[C@@H](O)[C@H](O)[C@H]2O[C@H]2C[C@](C)(N)[C@H](O)[C@H](C)O2)Oc2ccc(cc2Cl)[C@H]1O [Vancomycin, reference compound] | – | – | – | – | 7.7 (≈ 11.2 µg/mL) | – | – | 0.3 (≈ 0.435 µg/mL) | 0.35 (≈ 0.507 µg/mL) | > 100 | 7.7
